For experiment [1], the target named is T1, human Met Kinase (His6-GST fusion, aa 956-1390) (Homo sapiens, UniProt P08581).
T1 construct: His6 (N); GST (Glutathione-S-Transferase) (N); made in house; host or cells: baculovirus expression system in Sf9 cells
Put plainly: In vitro screen: kinase assay of purified Met kinase. The format is biochemical. The conditions noted are these: purified Met 1 nM, 10 μM ATP, 1 μM peptide substrate, 1 hour at room temperature; read-out: pIC50 values at the c-Met receptor (in vitro screen results) (converted). The procedure: The peptide substrate, Biotin-aminohexyl-EEEEYFELVAKKKK-amide was purchased from SynPep Solid sample is dissolved at approximately 2.5 mM in water (concentration determined by amino acid analysis) and aliquots stored at −20° C.
Met Kinase: A fusion protein consisting of His6-tagged Glutathione-S-Transferase (GST) and amino acid residues 956-1390 of human Met Kinase (aa 956-1390 of Entrez Protein Accession # EAL24359.1 (met proto-oncogene (hepatocyte growth factor receptor) [Homo sapiens])) from “www.ncbi.nlm.nih.gov/entrez/”) is purified from baculovirus expression system in Sf9 cells using Ni chelate column, GSH column, followed by size exclusion chromatography. Purity greater than 90%, estimated by SDS-PAGE, is achieved. Samples in 25 mM HEPES pH 7.5, 100 mM NaCl, 0.1 mM EDTA are stored at −80° C. until use.
Assays are performed in 96 well (Costar, Catalog No. 3789) or 384 well plates (Costar, Catalog No. 3705). Assay conditions for the peptide phosphorylation reaction (in 10, 20, 25, or 40 μl volume) mix are 100 mM Hepes buffer, pH 7.4; 0.1 mgml^−1 BSA; 5 mM MgCl2; 1 mM DTT; 10 μM ATP; purified Met (1 nM final); and 1 μM peptide substrate. Compounds, titrated in DMSO, are evaluated at concentrations ranging from 50 μM to 0.2 nM. […] Reactions are incubated for 1 hour at room temperature and are stopped by addition of detection reagents containing, at final detection volume, 12.5 mM EDTA; 100 mM Hepes; 0.1 mg/ml BSA; 8 nM Streptavidin APC (Perkin Elmer catalog #CR130-150); 1 nM Europium-labelled anti-phosphotyrosine antibody (Perkin Elmer catalog #AD0067). Under the assay conditions defined above, the Km (apparent) for ATP is determined to be 40 μM.
The data for compound dose responses were plotted as % Inhibition, calculated with the data reduction formula 100*(1−[(U1−C2)/(C1−C2)]), versus concentration of compound, where U is the unknown value, C1 is the average control value obtained for DMSO, and C2 is the average control value obtained for 0.05M EDTA. Data were fitted to the curve described by: y=((Vmax*x)/(K+x)) where Vmax is the upper asymptote and K is the IC50. The results for each compound were recorded as pIC50 calculated as follows: pIC50=−Log 10(K).

Experiment [2] concerns the target T2, c-Met/cFms chimeric receptor in c-Met/cFms/NIH3T3 cells (Homo sapiens, UniProt P08581).
T2 construct: The transmembrane/cytoplasmic domain fragment of c-Met (nucleotides 933 to 1390); expressed in transfected cells; the other entry of the earlier key: CSF1R (P07333, Macrophage colony-stimulating factor 1 receptor)
Put plainly: Cell-based assay for c-Met autophosphorylation (ELISA). The settings on record: compounds 1 h at 37° C., M-CSF (600 ng/ml) stimulation 10 min. From the text:
To generate a chimeric cDNA clone of c-Met with cFms, the extracellular domain of colony stimulating factor 1 receptor (CSF1R encoded by cFms gene) was fused with the transmembrane and cytoplasmic domain of c-Met. Reverse-transcribed RNA from human placenta was used as template to clone c-Met. The transmembrane/cytoplasmic domain fragment of c-Met (nucleotides 933 to 1390) containing a NotI site at both 5′- and 3′-end was generated by polymerase chain reaction (PCR) using following two oligonucleotides;
The resulting c-Met cDNA was cloned into pCR2.1-TOPO vector (c-Met/pCR2.1-TOPO). The extracellular domain fragment of cFms (nucleotides 1 to 512) containing BamHI site at 5′-end and NotI site at 3′-end was generated from human placenta cDNA by PCR using two oligonucleotides;
The resulting cFms cDNA was cloned into pcDNA3.1 vector (Invitrogen) using the BamHI and NotI sites (cFms/pcDNA3.1). To generate complete chimeric construct, the c-Met fragment (transmembrane and cytoplasmic domain) was digested with NotI sites (in c-Met/pCR2.1-TOPO vector) and then subcloned into cFms/pcDNA3.1 vector by NotI site (c-Met/cFms/pcDNA3.1).
NIH3T3 cells were grown in DMEM supplemented with 10% fetal bovine serum. NIH3T3 cells were transfected with c-Met/cFms/pcDNA3.1 vector alone using the calcium phosphate method according to the manufacturer's instructions. Three days after transfection, cells were selected with G418 (0.4 mgml^−1) for 14 days and the expression of c-Met chimeric receptor in the G418-resistant colonies of NIH3T3 (c-Met/cFms/NIH3T3) cells was analyzed by immunoblot. Autophosphorylation of c-Met induced by the stimulation with M-SCF, the ligand for CSF1R, was analyzed by immunoprecipitation and immunoblot, and prominent stable transfectant was selected for c-Met autophosphorylation assay. […]
c-Met/cFms/NIH3T3 cells were plated at 1×10^5 cells/well in collagen-coated 96-well microtitre plates and grown 24 h under standard culture conditions, followed by serum starvation for 1 h. The cells were incubated with compounds for 1 h at 37° C. and followed by M-CSF (600 ngml^−1) stimulation for 10 min at 37° C. The media was removed and the cells were lysed with 120 ul/well of lysis buffer (20 mM Tris-HCl pH8.0, 137 mM NaCl, 2 mM EDTA, 10% glycerol, 1% Triton X-100, 1 mM Na3VO4 and Protease Inhibitor Cocktail (Complete mini EDTA-free, Roche)). Then 100 ul/well of lysate was transferred to the antibody-coated (50 ng/well goat anti-cFms antibody in PBS) ELISA plate and incubated overnight at 4° C. Plates were washed five times with PBST (PBS containing 0.05% Tween-20). Primary antibody (biotin-conjugated anti-phosphotyrosine monoclonal antibody, PIERCE) was diluted 1:10,000 in PBST containing 1% BSA, added (100 ul/well) and incubated for 2 h at room temperature. After washing the plates five times with washing buffer, 100 ul/well of HRP-conjugated streptavidin (PIERCE) in PBST containing 1% BSA was added and incubated for 30 min at room temperature. After washing five times with PBST, 100 ul/well of SuperSignal ELISA Femto Substrate (PIERCE) was added and incubated for almost 1 min at room temperature. Chemiluminescence was measured using Wallac 1420 multilabel counter.
The IC50 was determined by using XLfit software (IDBS) with four-parameters, sigmoidal dose-response equation.

The structures appear in SMILES notation.

T1 sequence (P08581 956-1390): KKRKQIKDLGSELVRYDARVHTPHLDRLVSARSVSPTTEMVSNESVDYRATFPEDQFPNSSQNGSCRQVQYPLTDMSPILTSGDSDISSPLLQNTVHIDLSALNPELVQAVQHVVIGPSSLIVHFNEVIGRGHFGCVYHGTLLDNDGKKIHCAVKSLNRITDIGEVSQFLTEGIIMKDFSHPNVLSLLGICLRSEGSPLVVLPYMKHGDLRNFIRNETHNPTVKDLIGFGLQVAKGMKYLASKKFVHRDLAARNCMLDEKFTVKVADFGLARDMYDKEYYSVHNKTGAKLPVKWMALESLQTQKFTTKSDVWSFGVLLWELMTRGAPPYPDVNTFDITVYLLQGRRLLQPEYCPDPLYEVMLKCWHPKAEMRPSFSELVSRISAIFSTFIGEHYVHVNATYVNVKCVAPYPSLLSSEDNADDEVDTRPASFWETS
T2 sequence (P08581 with tags, fused parts or gaps): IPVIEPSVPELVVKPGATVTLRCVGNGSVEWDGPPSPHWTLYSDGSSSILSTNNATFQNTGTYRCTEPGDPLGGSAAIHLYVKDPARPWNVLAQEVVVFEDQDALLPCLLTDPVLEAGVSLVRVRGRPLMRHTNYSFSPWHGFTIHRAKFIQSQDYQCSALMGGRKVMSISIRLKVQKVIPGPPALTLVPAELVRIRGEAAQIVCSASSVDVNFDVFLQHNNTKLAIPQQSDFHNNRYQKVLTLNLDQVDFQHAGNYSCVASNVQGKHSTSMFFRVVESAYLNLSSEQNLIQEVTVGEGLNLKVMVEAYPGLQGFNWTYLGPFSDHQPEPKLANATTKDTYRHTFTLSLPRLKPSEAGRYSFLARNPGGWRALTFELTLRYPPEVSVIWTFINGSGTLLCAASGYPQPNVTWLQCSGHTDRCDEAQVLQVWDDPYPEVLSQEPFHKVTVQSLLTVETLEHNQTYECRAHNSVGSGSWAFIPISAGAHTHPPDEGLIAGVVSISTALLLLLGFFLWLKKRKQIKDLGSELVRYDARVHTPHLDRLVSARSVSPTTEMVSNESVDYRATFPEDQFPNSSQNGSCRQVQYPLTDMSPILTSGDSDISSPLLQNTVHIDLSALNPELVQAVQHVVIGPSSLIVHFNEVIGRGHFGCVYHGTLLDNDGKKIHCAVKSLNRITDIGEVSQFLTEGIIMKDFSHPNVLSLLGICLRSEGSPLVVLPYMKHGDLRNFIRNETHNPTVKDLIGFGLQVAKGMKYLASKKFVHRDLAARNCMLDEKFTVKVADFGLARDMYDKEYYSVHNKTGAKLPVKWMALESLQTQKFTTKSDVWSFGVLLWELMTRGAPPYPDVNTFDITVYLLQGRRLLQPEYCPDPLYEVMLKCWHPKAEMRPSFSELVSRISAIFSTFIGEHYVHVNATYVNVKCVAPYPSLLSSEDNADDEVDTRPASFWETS

In the case of `O=C(Nc1ccccc1)C1(C(=O)Nc2ccc(Nc3ccnc4[nH]ccc34)cc2)CC1` [Example 16, N^1-Phenyl-N^1-[4-(1H-pyrrolo[2,3-b]pyridin-4-ylamino)phenyl]-1,1-cyclopropanedicarboxamide], the IC50 in experiment [1] was 100 to 1000 nM; in experiment [2], 3160 to 31600 nM. For `CN(C)Cc1cccc(NC(=O)c2cc3c(Oc4ccc(NC(=O)C5(C(=O)Nc6ccc(F)cc6)CC5)cc4)ccnc3[nH]2)c1` [Example 14, N^1-[4-({2-[({3-[(Dimethylamino)methyl]phenyl}amino)carbonyl]-1H-pyrrolo[2,3-b]pyridin-4-yl}oxy)phenyl]-N^1-(4-fluorophenyl)-1,1-cyclopropane dicarboxamide] the same measures were under 10 nM and 1000 to 3160 nM. As to `NC(=O)CNC(=O)c1cc2c(Oc3ccc(NC(=O)C4(C(=O)Nc5ccc(F)cc5)CC4)cc3)ccnc2[nH]1` [Example 8, N^1-{4-[(2-{[(2-Amino-2-oxoethyl)amino]carbonyl}-1H-pyrrolo[2,3-b]pyridin-4-yl)oxy]phenyl}-N^1-(4-fluorophenyl)-1,1-cyclopropanedicarboxamide], in experiment [1], the IC50 is under 10 nM.

These data come from US20100016307A1, “NOVEL COMPOUNDS” (priority 2006, published 2010).
